Measured values reported in paper PMC9303975 (Proceedings of the National Academy of Sciences of the …, 2022).
Blank lines part the entries; values can stand above or below the molecule they belong to. Bridges are numbered along the chain shown (N, C = ends). Where no end group is shown, it is not given here.

What was measured:
[1] = system: PLA2R autoantibody from one MN patient serum; assay: Peptide microarray binding detection (PEPperCHIP); settings: MN patient serum at 1:100, goat anti-human IgG DyLight 680
Excerpt: To probe the importance of the amino acids within the PLA2R epitope in human autoantibody recognition, we utilized a printed peptide microarray. This peptide laser printing technology allows the synthesis of peptides (between 15 and 20 amino acids in length) directly onto glass slides followed by single substitution scans, which involves the stepwise substitution of all amino acid positions of a given epitope with all 20 main amino acids (Fig. 1A). We first synthesized a stepped series of truncated peptides across the originally discovered 31mer epitope (at both N- and C-terminus end) in order to identify the minimum sequence retaining high-affinity binding. […] We have previously shown that the epitope peptide is a disulphide-bonded structure, and its reactivity to human anti-PLA2R is sensitive to reduction ([8]). […] The substitution scan of these two regions was performed by exchange of the native amino acids with all 20 main amino acids. […] To further investigate this, a second array (platform 3) combined both parts of the N-terminal region and the cyclic C-terminal region. […]
Peptide microarrays were generated and performed by PEPperPRINT (Heidelberg, Germany) ([31], [32]). […] Peptide spot intensity quantification and peptide annotation were executed with PepSlide Analyzer. […]

[2] = system: PLA2R autoantibody (27 MN anti-PLA2R positive sera); assay: BLI direct interaction assay: immobilized peptides with anti-PLA2R positive sera; format: binding, human; settings: BLI (Octet Red); 27 MN sera at 1/200; dissociation rate from Hill-1 plot; n = 3
Description: BLI experiments were conducted using an Octet Red (ForteBio). Octet CDL sensors (coated with a thin layer of carboxymethyl dextran) were activated by EDC/NHS, at the same concentration used for SPR, for 300 s with 1000 rpm agitation. […] Following immobilization, sensors were deactivated in 1 M ethanolamine for 300 s to prevent further immobilization of proteins to the samples sensors.
The association phase was measured for 450 s with 1000 rpm agitation. The dissociation phase for each sensor was subsequently measured by incubating the sensors into Hepes-sera buffer for 1200 s at 1000 rpm. Regeneration of the sensor was achieved by six successive washes in 10 mM NaOH for 15 s followed by 15 s in Milli-Q water. The immobilized sensor responses to anti-PLA2R IgG were calibrated against nonspecific binding of each immobilized sensor to Hepes-sera buffer.
The dissociation phase of each response was collected and plotted, and the dissociation rate was calculated (kd) as the 1/k value produced from a Hill-1 plot analysis. The average dissociation rate was calculated for each peptide sensor binding to the 27 MN patients’ sera. Dissociation rates with an R^2 value <0.9 or χ^2 value >3 were excluded from the data due to poor fitting.

[3] = system: human anti-PLA2R antibody (MN anti-PLA2R IgG) binding to PLA2R-NC3; assay: SPR inhibition assay: peptides block anti-PLA2R IgG binding to immobilized PLA2R-NC3; settings: SPR (ProteOn), 1 µM peptide, anti-PLA2R IgG 1/100 in Hepes buffer pH 7.2, maximal response, n = 3
Description: Real-time binding analysis was evaluated using an SPR instrument (ProteOn, BIO-RAD). ProteOn GLC sensor lanes were preactivated by injection of 18.75 mg/mL EDC (1-ethyl-3-(3-dimethylaminopropyl) carbodiimide) and 1.4 mg/mL NHS (N-hydroxysuccinimide, Sigma-Aldrich). Once activated, 20 μg/mL PLA2R-NC3 in 10 mM sodium acetate buffer (pH 4.5) (BIO-RAD) was injected onto sensor chip lanes for immobilization. Ethanolamine was injected to deactivate the sensors from further immobilization.
Subsequently, all AIPs were tested in triplicate using the same concentration. […] Hepes buffer was subsequently flown over, and the dissociation phase was measured for 400 s. The sensors were then regenerated with two successive injections (40 s) of 10 mM NaOH (sodium hydroxide). Each measured response of anti-PLA2R IgG with or without peptides to immobilized PLA2R-NC3 protein was calibrated against nonspecific binding of the sensor to Hepes buffer and Hepes buffer containing antibodies with or without peptides to a blank immobilized sensor. The maximal response was measured for all conditions of anti-PLA2R IgG and percentage inhibition of PLA2R autoantibody binding to PLA2R by AIPs calculated.

PLA2R autoantibody = assay: Autoantibody binding to Endo180 protein (western blot and dot blot, Fig. S2); design: species or system human; settings: western blot non reduced and reduced; dot blot under native condition
Description: To determine the contribution of the conformation of the epitope sequence, the binding of the autoantibody was tested against Endo180 protein, another member of the mannose receptor family with high structural homology of the PLA2R CysR domain (SI Appendix, Fig. S2).
Fig. S2: PLA2R autoantibodies incapable of binding to Endo180 potentially due to lack of surface cavity in the P28mer epitope region.
A) Sequences from the P28mer region in the mannose receptor family proteins were subjected to consensus mapping by weblogo. Residues conserved in all mannose receptor proteins are indicated with *. B) Western blot analysis of PLA2R and Endo180 under non reduced and reduced conditions using anti-His and human PLA2R autoantibody. C) Dot blot analysis of PLA2R and […]
PLA2R autoantibody under native condition. D) Comparison of the PLA2R, DEC -205 (5ao5) and Endo-180 (7jpt) structures and their overlays. The RSMD values generated were 3.184 Å RMSD for analysis between PLA2R and Endo180, 3.558 Å RMSD for DEC-205 and Endo180, where Endo180 was used as reference.
(1 picture or pasted object on this page, not shown here)

Molecule: CIQAGKSVLTLENCK (disulfide 1-14 (inferred)) [platform 2, microarray-printed cyclic region […] of P28mer, cyclized by disulphide]
- autoantibody binding to printed peptide (fluorescence intensity) [1]: no significant binding

Molecule: KGIFVIQSESLKKC [platform 1, microarray-printed linear region […] of P28mer]
- autoantibody binding to printed peptide (fluorescence intensity) [1]: no significant binding

- binding affinity of immobilized peptide to anti-PLA2R positive sera, relative to P28mer [2]: lower affinity than the P28mer
Molecule: SVLTLENCK [AIP2]

- percentage inhibition of PLA2R autoantibody binding to PLA2R [3]: ~40%
- binding affinity of immobilized peptide to anti-PLA2R positive sera, relative to P28mer [2]: lower affinity than the P28mer
Molecule: VIQSESLK [AIP1]

B1: Endo180: mannose receptor family protein with high structural homology to the PLA2R CysR domain (protein, UniProt Q9UBG0 31-1479, looked up)
C-type mannose receptor 2: GAPGDAALPEPNVFLIFSHGLQGCLEAQGGQVRVTPACNTSLPAQRWKWVSRNRLFNLGTMQCLGTGWPGTNTTASLGMYECDREALNLRWHCRTLGDQLSLLLGARTSNISKPGTLERGDQTRSGQWRIYGSEEDLCALPYHEVYTIQGNSHGKPCTIPFKYDNQWFHGCTSTGREDGHLWCATTQDYGKDERWGFCPIKSNDCETFWDKDQLTDSCYQFNFQSTLSWREAWASCEQQGADLLSITEIHEQTYINGLLTGYSSTLWIGLNDLDTSGGWQWSDNSPLKYLNWESDQPDNPSEENCGVIRTESSGGWQNRDCSIALPYVCKKKPNATAEPTPPDRWANVKVECEPSWQPFQGHCYRLQAEKRSWQESKKACLRGGGDLVSIHSMAELEFITKQIKQEVEELWIGLNDLKLQMNFEWSDGSLVSFTHWHPFEPNNFRDSLEDCVTIWGPEGRWNDSPCNQSLPSICKKAGQLSQGAAEEDHGCRKGWTWHSPSCYWLGEDQVTYSEARRLCTDHGSQLVTITNRFEQAFVSSLIYNWEGEYFWTALQDLNSTGSFFWLSGDEVMYTHWNRDQPGYSRGGCVALATGSAMGLWEVKNCTSFRARYICRQSLGTPVTPELPGPDPTPSLTGSCPQGWASDTKLRYCYKVFSSERLQDKKSWVQAQGACQELGAQLLSLASYEEEHFVANMLNKIFGESEPEIHEQHWFWIGLNRRDPRGGQSWRWSDGVGFSYHNFDRSRHDDDDIRGCAVLDLASLQWVAMQCDTQLDWICKIPRGTDVREPDDSPQGRREWLRFQEAEYKFFEHHSTWAQAQRICTWFQAELTSVHSQAELDFLSHNLQKFSRAQEQHWWIGLHTSESDGRFRWTDGSIINFISWAPGKPRPVGKDKKCVYMTASREDWGDQRCLTALPYICKRSNVTKETQPPDLPTTALGGCPSDWIQFLNKCFQVQGQEPQSRVKWSEAQFSCEQQEAQLVTITNPLEQAFITASLPNVTFDLWIGLHASQRDFQWVEQEPLMYANWAPGEPSGPSPAPSGNKPTSCAVVLHSPSAHFTGRWDDRSCTEETHGFICQKGTDPSLSPSPAALPPAPGTELSYLNGTFRLLQKPLRWHDALLLCESRNASLAYVPDPYTQAFLTQAARGLRTPLWIGLAGEEGSRRYSWVSEEPLNYVGWQDGEPQQPGGCTYVDVDGAWRTTSCDTKLQGAVCGVSSGPPPPRRISYHGSCPQGLADSAWIPFREHCYSFHMELLLGHKEARQRCQRAGGAVLSILDEMENVFVWEHLQSYEGQSRGAWLGMNFNPKGGTLVWQDNTAVNYSNWGPPGLGPSMLSHNSCYWIQSNSGLWRPGACTNITMGVVCKLPRAEQSSFSPSALPENPAALVVVLMAVLLLLALLTAALILYRRRQSIERGAFEGARYSRSSSSPTEATEKNILVSDMEMNEQQE
- interaction of the autoantibody with the protein (PLA2R autoantibody): No interaction was detected
